Assay results as given in patent publication US5358945A, “Pyrimidine compound and pharmaceutically acceptable salts thereof” (Mitsui Petrochemical Industries, Ltd., priority 1990, dated 1994).
Structures can show the parent of a compound that is named as a salt.

What was measured:
Mouse neuro 2a cells = experiment: Neurite outgrowth of mouse neuroblastoma neuro 2a cells (Table 7); type: cell-based; details: mean ± S.D.
Method in brief: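 Neuro-2a cells seeded at 1,000 cells/well in DMEM with 10% FCS, cultured one day at 37 °C, 5% CO2, then 24 h with compound (up to 6 concentrations, triplicate). Fixed with glutaraldehyde, methylene blue stained; percentage of cells bearing neurites ≥2× cell long diameter counted microscopically (>200 cells).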

[1] = test system: Mouse neuroblastoma cells NS-20Y; experiment: Neurite appearance in mouse neuroblastoma NS-20Y cells (Table 8); type: cell-based;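 note: cells grown in polyornithine-coated dishes, with timing counted from the start of culture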
crushed sciatic nerves = experiment: Recovery of the interdigital distance in rats with crushed sciatic nerves (Table 9); type: in vivo, rat (male Wistar)
Experimental: Rats whose sciatic nerves were crushed were prepared as a model for peripheral nervous disorders and the effects of the compounds of this invention on it were tested. It was made clear that the compounds of the present invention have an effect of promoting recovery of the interdigit distance and the weight of the soleus muscle to normal values.
Curative effect on rats with crushed sciatic nerves: The curing effect of the compound of the invention was tested on rats having crushed sciatic nerves as a model of peripheral nervous disorder using (1) a change in the action of the hind paw with the crushed sciatic nerves and (2) a change in the weight of the muscle as an index of the course of degeneration and regeneration of peripheral nerves.
In the experiment, male Wistar rats (6 weeks old), 10-15 per group, were used. The sciatic nerves were crushed by a method similar to the method of Yamatsu et al. (see Kiyomi Yamatsu, Takenori Kaneko, Akifumi Kitahara and Isao Ohkawa, Journal of Japanese Pharmacological Society, 72, 259-268 (1976) and the method of Hasegawa et al. (see Kazuo Hasegawa, Naoji Mikuni and Yutaka Sakai, Journal of Japanese Pharmacological Society, 7 4 721-734 (1978). Specifically, under anesthesia with pentobarbital (40 mg/kg, i.p.), the left side sciatic nerve was exposed at the femur and a given site was crushed with hemostat (2ram in width) for 30 seconds. After crushing, the operated site was immediately sitched. Vincristine, known to delay the regeneration of peripheral nerves, was administered intraperitoneally at 100 μg/kg per week.
Test compounds selected from the compounds of the invention were administered intraperitoneally or orally once a day from the day of operation to the 30th day. A group to which 0.9% saline was administered was used as control.
According to the method of Hasegawa [Hasegawa, K., Experientia, 34, 750-751 ( 1978)], the distance between the first and fifth digits of the hind paw was measured and the ratio of a crushed-side distance to a normal-side distance was calculated.
*Compound 274 is orally administered to a group of rats with the crushed

mouse = experiment: Acute toxicity in mouse (Table 10); type: in vivo
Experimental: The acute toxicity of the compounds of the invention was examined by the following method.
Male ddy-strain 5-week old mice, 4-6 per group, were used as experimental animals. Each of the compounds was dissolved or suspended in saline and administered perorally (p.o.) or intraperitoneally (i.p.), and the toxicity of the compound was assessed 24 hours after the administration.

[2] = i.p., 24 hours after administration

O=C1CCCN1c1ccnc(N2CCCCC2)n1 [Compound 274, 4-(2-oxopyrrolidino)-2-(4-piperidino) pyrimidine hydrochloride]
Ratio of the number of cells having neurites with a length of at least two times as large as the diameter of cells to the total number of cells (Mouse neuro 2a cells; 0.3 mM, hydrochloride): 25.8 ± 3.5%
The number of cells in which neurites appeared/Total number of cells ([1]; 24 hour, 0.1 mM, hydrochloride): 4/50
The number of cells in which neurites appeared/Total number of cells ([1]; 24 hour, 0.2 mM, hydrochloride): 6/50
The number of cells in which neurites appeared/Total number of cells ([1]; 48 hour, 0.2 mM, hydrochloride): 4/50
The number of cells in which neurites appeared/Total number of cells ([1]; 48 hour, 0.5 mM, hydrochloride): 6/50
Rate of recovery of the interdigital distance (crushed sciatic nerves; 7.5 mg/kg orally, 7 days after crush): 42.6 ± 6.8%
Rate of recovery of the interdigital distance (crushed sciatic nerves; 7.5 mg/kg orally, 14 days after crush): 37.6%
Rate of recovery of the interdigital distance (crushed sciatic nerves; 7.5 mg/kg orally, 16 days after crush): 38.4%
Rate of recovery of the interdigital distance (crushed sciatic nerves; 7.5 mg/kg orally, 18 days after crush): 40.9 ± 6.2%
Rate of recovery of the interdigital distance (crushed sciatic nerves; 7.5 mg/kg orally, 20 days after crush): 45.6 ± 14.0%
Rate of recovery of the interdigital distance (crushed sciatic nerves; 7.5 mg/kg orally, 22 days after crush): 46.8 ± 13.2%
Rate of recovery of the interdigital distance (crushed sciatic nerves; 7.5 mg/kg orally, 24 days after crush): 48.2%
Rate of recovery of the interdigital distance (crushed sciatic nerves; 7.5 mg/kg orally, 26 days after crush): 54.8%
Rate of recovery of the interdigital distance (crushed sciatic nerves; 7.5 mg/kg orally, 28 days after crush): 66.9 ± 19.6%
Rate of recovery of the interdigital distance (crushed sciatic nerves; 7.5 mg/kg orally, 30 days after crush): 64.0 ± 21.2%
Rate of recovery of the interdigital distance (crushed sciatic nerves; 15 mg/kg orally, 7 days after crush): 39.8 ± 5.2%
Rate of recovery of the interdigital distance (crushed sciatic nerves; 15 mg/kg orally, 14 days after crush): 38.2%
Rate of recovery of the interdigital distance (crushed sciatic nerves; 15 mg/kg orally, 16 days after crush): 39.4%
Rate of recovery of the interdigital distance (crushed sciatic nerves; 15 mg/kg orally, 18 days after crush): 40.5 ± 4.2%
Rate of recovery of the interdigital distance (crushed sciatic nerves; 15 mg/kg orally, 20 days after crush): 46.7 ± 7.3%
Rate of recovery of the interdigital distance (crushed sciatic nerves; 15 mg/kg orally, 22 days after crush): 50.0 ± 10.0%
Rate of recovery of the interdigital distance (crushed sciatic nerves; 15 mg/kg orally, 24 days after crush): 56.8%
Rate of recovery of the interdigital distance (crushed sciatic nerves; 15 mg/kg orally, 26 days after crush): 62.2%
Rate of recovery of the interdigital distance (crushed sciatic nerves; 15 mg/kg orally, 28 days after crush): 65.5 ± 19.8%
Rate of recovery of the interdigital distance (crushed sciatic nerves; 15 mg/kg orally, 30 days after crush): 70.1 ± 21.4%
Rate of recovery of the interdigital distance (crushed sciatic nerves; 30 mg/kg orally, 7 days after crush): 38.8 ± 4.4%
Rate of recovery of the interdigital distance (crushed sciatic nerves; 30 mg/kg orally, 14 days after crush): 39.2%
Rate of recovery of the interdigital distance (crushed sciatic nerves; 30 mg/kg orally, 16 days after crush): 38.3%
Rate of recovery of the interdigital distance (crushed sciatic nerves; 30 mg/kg orally, 18 days after crush): 40.8 ± 4.5%
Rate of recovery of the interdigital distance (crushed sciatic nerves; 30 mg/kg orally, 20 days after crush): 43.8 ± 6.7%
Rate of recovery of the interdigital distance (crushed sciatic nerves; 30 mg/kg orally, 22 days after crush): 47.8 ± 11.5%
Rate of recovery of the interdigital distance (crushed sciatic nerves; 30 mg/kg orally, 24 days after crush): 57.0%
Rate of recovery of the interdigital distance (crushed sciatic nerves; 30 mg/kg orally, 26 days after crush): 60.9%
Rate of recovery of the interdigital distance (crushed sciatic nerves; 30 mg/kg orally, 30 days after crush): 73.6 ± 20.0%
Estimated LD50 (mouse; in vivo, ip): 250 to 500 mg/kg

CN1CCN(c2nccc(N3CCCC3=O)n2)CC1 [Compound 408]
Ratio of the number of cells having neurites with a length of at least two times as large as the diameter of cells to the total number of cells (Mouse neuro 2a cells; 0.03 mM): 4.9 ± 0.2%
Ratio of the number of cells having neurites with a length of at least two times as large as the diameter of cells to the total number of cells (Mouse neuro 2a cells; 0.3 mM): 4.4 ± 0.2%
The number of cells in which neurites appeared/Total number of cells ([1]; 24 hour, 0.2 mM): 7/50
The number of cells in which neurites appeared/Total number of cells ([1]; 24 hour, 0.5 mM): 10/50
The number of cells in which neurites appeared/Total number of cells ([1]; 48 hour, 0.2 mM): 8/50
The number of cells in which neurites appeared/Total number of cells ([1]; 48 hour, 0.5 mM): 11/50
Estimated LD50 (mouse; [2]): > 500 mg/kg

O=C1CCCN1c1ccnc(N2CCN(c3ccccc3)CC2)n1 [Compound 416]
Ratio of the number of cells having neurites with a length of at least two times as large as the diameter of cells to the total number of cells (Mouse neuro 2a cells; 0.01 mM): 5.0 ± 1.9%
Ratio of the number of cells having neurites with a length of at least two times as large as the diameter of cells to the total number of cells (Mouse neuro 2a cells; 0.1 mM): 4.4 ± 0.4%
Ratio of the number of cells having neurites with a length of at least two times as large as the diameter of cells to the total number of cells (Mouse neuro 2a cells; 0.3 mM): 5.1 ± 1.2%
The number of cells in which neurites appeared/Total number of cells ([1]; 24 hour, 0.2 mM): 6/50
The number of cells in which neurites appeared/Total number of cells ([1]; 24 hour, 0.5 mM): 9/50
The number of cells in which neurites appeared/Total number of cells ([1]; 48 hour, 0.2 mM): 7/50
The number of cells in which neurites appeared/Total number of cells ([1]; 48 hour, 0.5 mM): 9/50
Estimated LD50 (mouse; [2]): > 500 mg/kg

O=C1CCCN1c1ccnc(N2CCN(Cc3ccccc3)CC2)n1 [Compound 424]
Ratio of the number of cells having neurites with a length of at least two times as large as the diameter of cells to the total number of cells (Mouse neuro 2a cells; 0.03 mM): 4.5 ± 2.4%
Ratio of the number of cells having neurites with a length of at least two times as large as the diameter of cells to the total number of cells (Mouse neuro 2a cells; 0.1 mM): 5.9 ± 1.7%
Ratio of the number of cells having neurites with a length of at least two times as large as the diameter of cells to the total number of cells (Mouse neuro 2a cells; 0.3 mM): 5.2 ± 2.5%
The number of cells in which neurites appeared/Total number of cells ([1]; 24 hour, 0.1 mM): 3/50
The number of cells in which neurites appeared/Total number of cells ([1]; 24 hour, 0.2 mM): 5/50
The number of cells in which neurites appeared/Total number of cells ([1]; 48 hour, 0.1 mM): 2/50
Estimated LD50 (mouse; [2]): > 500 mg/kg

CN(C)c1nccc(N2CCCC2=O)n1 [Compound 432]
Ratio of the number of cells having neurites with a length of at least two times as large as the diameter of cells to the total number of cells (Mouse neuro 2a cells; 0.03 mM): 4.0 ± 2.2%
Ratio of the number of cells having neurites with a length of at least two times as large as the diameter of cells to the total number of cells (Mouse neuro 2a cells; 0.1 mM): 4.2 ± 1.7%
Ratio of the number of cells having neurites with a length of at least two times as large as the diameter of cells to the total number of cells (Mouse neuro 2a cells; 1 mM): 5.1 ± 1.2%
The number of cells in which neurites appeared/Total number of cells ([1]; 24 hour, 0.5 mM): 6/50
The number of cells in which neurites appeared/Total number of cells ([1]; 48 hour, 0.2 mM): 7/50
The number of cells in which neurites appeared/Total number of cells ([1]; 48 hour, 0.5 mM): 8/50
Estimated LD50 (mouse; [2]): > 500 mg/kg

CCCCN(CCCC)c1nccc(N2CCCC2=O)n1 [Compound 440]
Ratio of the number of cells having neurites with a length of at least two times as large as the diameter of cells to the total number of cells (Mouse neuro 2a cells; 0.1 mM): 4.3 ± 0.8%
The number of cells in which neurites appeared/Total number of cells ([1]; 24 hour, 0.1 mM): 3/50
The number of cells in which neurites appeared/Total number of cells ([1]; 24 hour, 0.5 mM): 4/50
The number of cells in which neurites appeared/Total number of cells ([1]; 48 hour, 0.1 mM): 4/50
Estimated LD50 (mouse; [2]): > 500 mg/kg
